Data reported in article PMC9979347 (ACS Omega, 2023).
Values joined by “and” are separate entries in the source; they are usually repeats but may differ in a detail not shown here. Equal entries are not always repeated. “Also recorded” adds a separate entry of the source. Where two headings read alike, the source gives them in different places.

Experiments:
[1] = tested on: K-562; assay: NCI-60 SRB screen; format: cell-based; conditions: Homo sapiens, K562, 48 h
[2] = target: hCA I (Homo sapiens, UniProt P00915); assay: stopped-flow CO2 hydration inhibition assay; format: biochemical
Sequence of hCA I (P00915 whole entry): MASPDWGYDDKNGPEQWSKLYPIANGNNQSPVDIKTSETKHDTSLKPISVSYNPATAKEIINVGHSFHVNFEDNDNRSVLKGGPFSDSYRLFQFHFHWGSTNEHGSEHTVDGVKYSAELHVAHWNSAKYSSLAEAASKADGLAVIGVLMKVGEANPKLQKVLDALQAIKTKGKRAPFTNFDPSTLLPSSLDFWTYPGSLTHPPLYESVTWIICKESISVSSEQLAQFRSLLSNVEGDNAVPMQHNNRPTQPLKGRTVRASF

[3] = target: hCA IX (Homo sapiens, UniProt Q16790); assay: biochemical; format: biochemical
[4] = target: hCA II (Homo sapiens, UniProt P00918); assay: stopped-flow CO2 hydration inhibition assay; format: biochemical
[5] = tested on: SR; assay: NCI-60 SRB screen; format: cell-based, human; conditions: five-dose, 48 h
[6] = tested on: HCT15; assay: NCI-60 SRB screen; format: cell-based; conditions: Homo sapiens, HCT-15, 48 h
[7] = target: hCA XII (Homo sapiens, UniProt O43570); assay: biochemical
Sequence of hCA XII (O43570 25-354): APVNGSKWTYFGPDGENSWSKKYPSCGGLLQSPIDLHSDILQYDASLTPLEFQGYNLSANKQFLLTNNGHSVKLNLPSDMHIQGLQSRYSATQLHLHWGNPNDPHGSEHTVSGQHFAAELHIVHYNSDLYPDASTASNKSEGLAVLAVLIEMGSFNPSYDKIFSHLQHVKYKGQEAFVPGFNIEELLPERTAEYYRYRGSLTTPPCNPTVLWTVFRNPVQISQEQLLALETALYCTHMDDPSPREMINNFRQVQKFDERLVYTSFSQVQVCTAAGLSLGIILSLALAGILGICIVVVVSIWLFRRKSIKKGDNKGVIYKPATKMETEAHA

[8] = tested on: hypoxic U251 cells; assay: cells; conditions: Homo sapiens, U-251, 48 h, read-out: Cytotoxicity IC50 (μM ± SD) U251
[9] = tested on: HEK293T cells; assay: cells; conditions: Homo sapiens, HEK-293T, 48 h, read-out: IC50 (μM ± SD) normal HEK293T cells, MTT, 48 h, triplicate
[10] = target: T1, recombinant Pim-1 kinase (Homo sapiens, UniProt P11309); assay: biochemical; conditions: Pim-1 kinase IC50 (μM ± SD), ADP-Glo
T1 sequence (P11309 whole entry): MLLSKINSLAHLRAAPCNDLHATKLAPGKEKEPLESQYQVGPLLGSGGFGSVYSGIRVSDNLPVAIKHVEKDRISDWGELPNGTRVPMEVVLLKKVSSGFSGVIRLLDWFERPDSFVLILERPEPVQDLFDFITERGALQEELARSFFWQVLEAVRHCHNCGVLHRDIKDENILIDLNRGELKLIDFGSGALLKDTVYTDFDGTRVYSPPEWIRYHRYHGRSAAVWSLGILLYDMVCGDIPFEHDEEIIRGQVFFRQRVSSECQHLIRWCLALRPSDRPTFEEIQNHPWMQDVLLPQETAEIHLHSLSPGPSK

[11] = tested on: HEK293T cells; conditions: for selectivity against colorectal carcinoma HCT116 cells: HEK293T IC50 versus HCT116 GI50; for average cancer cell fold selectivity: HEK293T IC50 versus average NCI-60 GI50; for IC50: read-out: IC50 (μM ± SD) normal HEK293T cells, MTT, 48 h, triplicate; for cancer cell selectivity compared to non-cancerous HEK293T cells: up to
[12] = tested on: hypoxic HCT116 cells; assay: cells; conditions: Homo sapiens, HCT-116, 48 h, read-out: Cytotoxicity IC50 (μM ± SD) HCT116
[13] = tested on: hCA I, II, IX, and XII; assay: stopped-flow CO2 hydration inhibition assay, across the four isoforms; format: biochemical, human
[14] = tested on: hypoxic LOX IMVI cells; assay: cells; conditions: Homo sapiens, 48 h, read-out: Cytotoxicity IC50 (μM ± SD) LOX IMVI
[15] = tested on: HCT116 cells; assay: Annexin V-FITC/PI apoptosis assay; format: cell-based, human; conditions: HCT116, 2.94 μM, 24 h
[16] = tested on: Nrf2 in HCT116 cell nuclei; assay: Nrf2 transcription factor ELISA on nuclear protein; format: cell-based, human
[17] = target: T1, recombinant Pim-1 kinase
[18] = tested on: HCT116 cells; assay: cell cycle analysis by propidium iodide flow cytometry; format: cell-based, human; conditions: HCT116, 2.94 μM, 24 h
[19] = tested on: ROS level in HCT116 cells; assay: reactive oxygen species fluorometric assay; format: cell-based, human; conditions: HCT116, 2.94 μM

SMILES: COc1ccc(C(=O)/C=C/c2cc3c(cc2Br)OCO3)cc1S(N)(=O)=O [4l, 5-[(2E)-3-(6-Bromo-2H-1,3-benzodioxol-5-yl)prop-2-enoyl]-2-methoxybenzene-1-sulfonamide]
- GI50 [1]: 0.45 µM
- Ki [2]: > 10 µM

SMILES: COc1ccc(C(=O)/C=C/c2ccc3ccccc3c2)cc1S(N)(=O)=O [4k, 2-Methoxy-5-[(2E)-3-(Naphthalen-2-Yl)Prop-2-Enoyl]Benzene-1-Sulfonamide]
- Ki [3]: > 10 µM
- Ki [2]: > 10 µM
- Ki [4]: > 10 µM
- GI50 [5]: sub-micromolar
- GI50 [6]: 0.58 µM
- Ki [7]: > 10 µM

SMILES: COc1ccc(C(=O)/C=C/c2ccc(Cl)c(Cl)c2)cc1S(N)(=O)=O [4i, 5-[(2E)-3-(3,4-Dichlorophenyl)prop-2-enoyl]-2-methoxybenzene-1-sulfonamide]
- GI50 [5]: sub-micromolar

SMILES: COc1ccc(C(=O)/C=C/c2cccc(Br)c2)cc1S(N)(=O)=O [4d, 5-[(2E)-3-(3-Bromophenyl)prop-2-enoyl]-2-methoxybenzene-1-sulfonamide]
- IC50 [8]: 14.8 ± 0.61 µM
- Ki [2]: 0.85 µM
- IC50 [9]: ~53 µM
- IC50 [10]: ~1.06 µM and 1.06 µM
- Ki [4]: 0.5 µM
- selectivity against colorectal carcinoma HCT116 cells [11]: ca. 50 fold
- average cancer cell fold selectivity [11]: ca. 20 fold
- IC50 [11]: 52.7 ± 2.03 µM
- cancer cell selectivity compared to non-cancerous HEK293T cells [11]: up to 50 fold
- GI50 [5]: sub-micromolar
- IC50 [12]: 6.32 ± 0.38 µM
- selectivity toward hCA I and hCA II over hCA IX and hCA XII [13]: ca. 10 fold
- Ki ([13]; read-out: average Ki value against the four tested isoforms, hCA I, II, IX, XII): 4 µM
- IC50 [14]: 38.3 ± 1.63 µM

SMILES: COc1ccc(C(C)=O)cc1S(N)(=O)=O [compound 3, 5-acetyl-2-methoxybenzene-1-sulfonamide]
- Ki [3]: 1.39 µM
- Ki [2]: 2.32 µM
- Ki [4]: 4.59 µM
- Ki [7]: 5.25 µM

SMILES: COc1ccc(C(=O)/C=C/c2ccccc2Cl)cc1S(N)(=O)=O [4a, 5-[(2E)-3-(2-Chlorophenyl)prop-2-enoyl]-2-methoxybenzene-1-sulfonamide]
- Ki [3]: > 10 µM
- Ki [2]: > 10 µM
- Ki [4]: > 10 µM
- Ki [7]: > 10 µM

SMILES: COc1ccccc1/C=C/C(=O)c1ccc(OC)c(S(N)(=O)=O)c1 [4e, 2-Methoxy-5-[(2E)-3-(2-methoxyphenyl)prop-2-enoyl]benzene-1-sulfonamide]
- GI50 [1]: 0.35 µM

SMILES: COc1ccc(C(=O)/C=C/c2cccc3ccccc23)cc1S(N)(=O)=O [4j, 2-Methoxy-5-[(2E)-3-(naphthalen-1-yl)prop-2-enoyl]benzene-1-sulfonamide]
- early apoptosis [15]: 8.3%
- fold increase of total apoptotic cells versus control [15]: 25 fold
- late apoptosis [15]: 27.8%
- total apoptotic cells [15]: 39.5%
- fold increase in transcriptionally active nuclear Nrf2 ([16]; HCT116, 2.94 μM, versus DMSO): ca. 3.3 fold
- Nrf2 (ng/mL ± SD) ([16]; HCT116 nuclei, 2.94 μM, control 0.89): 2.92 ng/mL
- selectivity to hCA IX over hCA I and hCA II / other tested isoforms [3]: ca. six-fold selectivity; also recorded: more than six-fold selective; also recorded: greater than six-fold selectivity
- fold more potent than staurosporine on Pim-1 kinase [17]: ca. 1.4 fold
- cell cycle arrest phase [18]: arrested the cell cycle of HCT116 cells at the G1/S phase; also recorded: arresting cell growth at the G1/S phase
- percentage of cells at the G2/M phase [18]: 6%
- percentage of cells in G1 (G0-G1) phase [18]: 52%
- percentage of cells in S phase [18]: 42%
- IC50 [8]: 4.6 ± 0.26 µM
- Ki [2]: > 10 µM
- IC50 [9]: ~20 µM
- IC50 [10]: ~0.34 µM and 0.34 µM
- Ki [4]: > 10 µM
- selectivity against colorectal carcinoma HCT116 cells [11]: ~15 fold
- average cancer cell fold selectivity [11]: ~9 fold
- IC50 [11]: 20.4 ± 0.94 µM
- cancer cell selectivity compared to non-cancerous HEK293T cells [11]: up to 50 fold
- GI50 [5]: sub-micromolar
- IC50 [12]: 2.94 ± 0.19 µM
- IC50 [14]: 12.1 ± 0.54 µM
- ROS level increase compared to DMSO-treated cells [19]: ca. 50%

SMILES: COc1ccc(C(=O)/C=C/c2ccccc2Br)cc1S(N)(=O)=O [4c, 5-[(2E)-3-(2-Bromophenyl)prop-2-enoyl]-2-methoxybenzene-1-sulfonamide]
- Ki [3]: 4.71 µM
- Ki [2]: > 10 µM
- Ki [4]: > 10 µM
- Ki [7]: > 10 µM

SMILES: COc1ccc(C(=O)/C=C/c2cccc(Cl)c2)cc1S(N)(=O)=O [4b, 5-[(2E)-3-(3-Chlorophenyl)prop-2-enoyl]-2-methoxybenzene-1-sulfonamide]
- Ki [3]: > 10 µM
- Ki [2]: > 10 µM
- Ki [4]: > 10 µM
- GI50 [5]: sub-micromolar
- Ki [7]: > 10 µM
